Literature values in patent US10357535B2, “Daptomycin formulations and uses thereof” (priority 2012, dated 2019).

Key:
MSSA = conditions: in less than one hour
MRSA = conditions: in less than one hour

CCCCCCCCCC(=O)NC(Cc1c[nH]c2ccccc12)C(=O)NC(CC(N)=O)C(=O)NC(CC(=O)O)C(=O)NC1C(=O)NCC(=O)NC(CCCN)C(=O)NC(CC(=O)O)C(=O)NC(C)C(=O)NC(CC(=O)O)C(=O)NCC(=O)NC(CO)C(=O)NC(C(C)CC(=O)O)C(=O)NC(CC(=O)c2ccccc2N)C(=O)OC1C (centres unmarked) [daptomycin, Daptomycin]
bacteria dead (MSSA): greater than 99.9% | bacteria dead (MRSA): greater than 99.9%
